Measured values as given in patent US20220280405A1, “NOVEL COMPOUNDS FOR SKIN LIGHTENING” (Conopco, Inc. , d/b/a UNILEVER, priority 2019, published 2022).

Test system: Melanoderm human tissue (MEL-300-B, Mattek Corp.)
Experiment: Melanoderm assay (melanin quantitation)
Format: cell-based
Conditions: for Melanin (μg/μg protein): 12 d dosing, melanin normalized to protein, mean +/− standard deviation, n = 3
Experimental: Control compounds consisted of a negative control (ultrapure water), vehicle control (DMSO in ultrapure water—final concentration of 0.1%) and positive control (2% kojic acid in ultrapure water—final concentration of 700 uM). Test compounds where prepared in DMSO at 10 mM concentrations and diluted with EPI-100-LLMM media (Mattek Corp.) to a final concentration of 10 uM. Melanoderm human tissue (MEL-300-B, Mattek Corp.) was equilibrated with EPI-100-NMM media for 24 h, followed by equilibration with EPI-100-LLMM media for 48 h prior to treatment with test compounds and controls. Dosing and re-feeding of melanoderms with controls and test compounds continued for a total of 12 d following standard protocols and the melanoderms collected for melanin quantitation, viability analysis and macroscopic/microscopic imaging analysis. For melanin quantitation, tissues were suspended in PBS buffer (5 ml) for 5 min, removed from the PBS and washed/rinsed with additional PBS (2 ml). Tissues were treated with 1% sodium bicarbonate solution (300 ul) for 30 min, followed by removal of the sodium bicarbonate solution and washed/rinsed with PBS solution (2×2 ml). Tissues were suspended in Solvable reagent (500 ul) and incubated at 95° C. for 24 h along with melanin standard samples (prepared by suspending melanin (cat # M8631, Sigma-Aldrich) in Solvable reagent to generate melanin standards at 0, 2.5, 5, 10, 25, 50 and 100 ug). All incubated samples were centrifuged at 13000 rpm for 5 min and the optical density of the supernatant was read/determined at 490 nm. The amount of melanin (ug) from each tissue sample was determined from the melanin standard samples calibration curve. Protein concentration of tissue samples was determined using the BCA protein assay kit (Pierce) and melanin content was normalized and expressed as melanin (ug)/protein (ug) (Table 1). Tissue viability as a result of test compound dosing/feeding relative to negative and vehicle controls was determined using the WST-1 reagent kit (cat # 05015944001, Roche). […]

| Structure (SMILES) | Melanin (μg/μg protein) (positive control 700 μM) | melanin content / skin lightening effect (in words) (melanoderm treatment, 10 uM, compared to vehicle control) | Melanin (μg/μg protein) (test compound 10 uM) |
| --- | --- | --- | --- |
| O=c1cc(CO)occ1O [Kojic acid, reference compound] | 0.128 +/− 0.004 μg/μg protein | – | – |
| CC(C)Oc1ccc(C(NC2CCOCC2)C2CCCCC2)cc1 (stereo not drawn) [Compound of example 1, N-(cyclohexyl(4-isopropoxyphenyl)methyl)tetrahydro-2H-pyran-4-amine] | – | reduced melanin content | 0.177 +/− 0.019 μg/μg protein |
